Measured values reported in patent US20090012011A1, “Novel Compounds” (SmithKline Beecham Corporation, priority 2006, published 2009).
pEC50: −log10 of the molar value.

Assays:
TRPV4 channel receptors [1] = molecular target: T1, TRPV4 channel receptors (Homo sapiens, UniProt Q9HBA0); assay: Ca2+ influx, Fura-2 fluorescence on FlexStation, human articular chondrocytes; type: cell-based
T1 construct: obtained using this method in human articular chondrocytes; endogenous in cells; host or cells: human articular chondrocytes
T1 sequence (Q9HBA0 whole entry): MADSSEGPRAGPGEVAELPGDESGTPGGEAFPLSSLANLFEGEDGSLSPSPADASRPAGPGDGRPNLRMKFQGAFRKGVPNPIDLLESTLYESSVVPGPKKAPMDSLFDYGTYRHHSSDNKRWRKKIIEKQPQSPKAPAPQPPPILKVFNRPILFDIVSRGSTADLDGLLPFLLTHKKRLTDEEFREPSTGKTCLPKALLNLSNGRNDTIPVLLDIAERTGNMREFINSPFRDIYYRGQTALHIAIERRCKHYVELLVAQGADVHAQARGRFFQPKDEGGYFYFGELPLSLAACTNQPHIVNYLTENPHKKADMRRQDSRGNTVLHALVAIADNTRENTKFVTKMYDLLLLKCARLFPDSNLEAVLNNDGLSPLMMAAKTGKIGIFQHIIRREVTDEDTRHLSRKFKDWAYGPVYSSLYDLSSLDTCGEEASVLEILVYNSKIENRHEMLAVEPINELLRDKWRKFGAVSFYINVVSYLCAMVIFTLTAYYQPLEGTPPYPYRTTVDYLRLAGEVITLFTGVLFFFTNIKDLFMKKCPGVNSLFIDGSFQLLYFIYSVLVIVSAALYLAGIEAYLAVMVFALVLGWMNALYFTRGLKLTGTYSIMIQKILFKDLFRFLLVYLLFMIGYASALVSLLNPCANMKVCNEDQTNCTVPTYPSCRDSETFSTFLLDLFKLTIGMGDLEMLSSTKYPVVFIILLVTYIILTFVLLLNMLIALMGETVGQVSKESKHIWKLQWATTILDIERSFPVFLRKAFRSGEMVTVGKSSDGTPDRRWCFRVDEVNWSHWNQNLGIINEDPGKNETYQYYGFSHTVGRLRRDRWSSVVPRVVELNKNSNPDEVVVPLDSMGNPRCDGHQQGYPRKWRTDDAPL
Excerpt: (§1) Ca^2+ influx mediated through TRPV4 channel receptors can be measured using articular chondrocytes from such species as, but not limited to, human, rat, canine, rabbit, monkey, and bovine, using standard techniques in the art such as, but not limited to, Fura-2 (Invitrogen/Molecular Probes, Eugene, Oreg.) fluorescence using a FlexStation (manufactured by Molecular Devices, Sunnyvale, Calif.). Table 1 lists biological data for several representative compounds obtained using this method in bovine articular chondrocytes.
Table 2 lists biological data for several representative compounds obtained using this method in human articular chondrocytes.

TRPV4 channel receptors [2] = molecular target: T2, TRPV4 channel receptors (Bos taurus, UniProt A0A8F4X677); assay: Ca2+ influx, Fura-2 fluorescence on FlexStation, bovine articular chondrocytes; type: cell-based
T2 construct: obtained using this method in bovine articular chondrocytes; endogenous in cells; host or cells: bovine articular chondrocytes
T2 sequence (A0A8F4X677 1-871): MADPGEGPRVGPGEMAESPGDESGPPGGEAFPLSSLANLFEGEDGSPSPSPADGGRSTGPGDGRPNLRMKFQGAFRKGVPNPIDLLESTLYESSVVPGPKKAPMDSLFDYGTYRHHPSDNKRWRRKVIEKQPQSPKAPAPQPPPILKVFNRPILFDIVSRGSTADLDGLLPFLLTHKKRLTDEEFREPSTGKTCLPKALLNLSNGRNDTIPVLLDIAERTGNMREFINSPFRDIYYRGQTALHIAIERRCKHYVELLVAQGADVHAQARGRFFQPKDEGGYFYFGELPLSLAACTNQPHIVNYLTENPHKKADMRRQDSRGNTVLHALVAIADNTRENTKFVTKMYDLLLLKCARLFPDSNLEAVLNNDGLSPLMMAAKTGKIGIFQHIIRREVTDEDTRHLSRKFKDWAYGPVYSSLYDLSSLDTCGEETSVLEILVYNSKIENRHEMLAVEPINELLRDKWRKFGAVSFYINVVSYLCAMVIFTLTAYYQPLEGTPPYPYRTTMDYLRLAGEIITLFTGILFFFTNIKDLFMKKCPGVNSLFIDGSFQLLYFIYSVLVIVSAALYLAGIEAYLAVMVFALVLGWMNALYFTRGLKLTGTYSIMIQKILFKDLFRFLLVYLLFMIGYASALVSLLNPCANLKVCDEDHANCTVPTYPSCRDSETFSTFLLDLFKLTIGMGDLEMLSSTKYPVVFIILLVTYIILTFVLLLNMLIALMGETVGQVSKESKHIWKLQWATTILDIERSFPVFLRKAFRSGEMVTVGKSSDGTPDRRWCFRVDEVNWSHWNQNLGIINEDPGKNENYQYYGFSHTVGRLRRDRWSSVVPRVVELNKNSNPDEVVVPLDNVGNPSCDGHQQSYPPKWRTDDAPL
Excerpt: as §1

| Structure (SMILES) | pEC50 (TRPV4 channel receptors [1]) | pEC50 (TRPV4 channel receptors [2]) |
| --- | --- | --- |
| CC(C)C[C@H](NC(=O)c1cc2ccccc2s1)C(=O)NC[C@@H]1CN(S(=O)(=O)c2ccc(F)cc2Cl)C[C@@H]1O (single isomer, unassigned) [Example 2] | 6.00 to 7.00 | 7.00 to 7.15 |
| CC(C)C[C@H](NC(=O)c1cc2ccccc2s1)C(=O)NC[C@H]1CN(S(=O)(=O)c2ccc(Cl)cc2Cl)C[C@H]1O (single isomer, unassigned) [Example 3] | 7.05 to 7.52 | 7.22 to 7.52 |
| CC(C)C[C@H](NC(=O)c1cc2ccccc2s1)C(=O)NC[C@@H]1CN(S(=O)(=O)c2ccc(F)cc2C(F)(F)F)C[C@@H]1O (single isomer, unassigned) [Example 6] | 5.00 to 6.00 |  |
